According to patent US20090163586A1, “Bis-(Sulfonylamino) Derivatives in Therapy 205” (AstraZeneca AB, priority 2007, published 2009):

Target: T1, human mPGES-1 (Homo sapiens, UniProt O14684)
T1 sequence (O14684 1-152): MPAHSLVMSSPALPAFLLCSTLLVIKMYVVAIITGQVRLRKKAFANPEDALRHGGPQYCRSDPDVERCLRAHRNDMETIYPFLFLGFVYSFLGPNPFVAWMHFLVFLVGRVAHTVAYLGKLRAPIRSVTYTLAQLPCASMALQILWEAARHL
Assay: Microsomal prostaglandin E synthase biochemical assay
Details: microsome preparation containing human mPGES-1; PGH2 10.8 μM, GSH 2.5 mM, pH 6.8; PGE2 by HTRF; average of at least n=2
In short: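 Human mPGES-1 microsomes at 2 μg/mL were pre-incubated 15 min with compound (60 μM to 0.002 μM) in 50 mM potassium phosphate pH 6.8 with 2.5 mM GSH. The reaction was started with 10.8 μM PGH2 and stopped after 1 minute with acidic ferric chloride/citrate. PGE2 was quantified by HTRF; IC50 is the mean of at least 2 runs.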

| Structure (SMILES) | IC50 [µM] |
| --- | --- |
| NS(=O)(=O)c1ccccc1NS(=O)(=O)c1cccc(-c2cc(F)cc(F)c2)c1 [Example 114, 2-[[3-(3,5-difluorophenyl)phenyl]sulfonylamino]benzenesulfonamide] | 0.83 |
| COc1ccc(Cl)cc1-c1cccc(S(=O)(=O)Nc2ccccc2S(N)(=O)=O)c1 [Example 115, 3-(5-Chloro-2-methoxy-phenyl)-N-(2-sulfamoylphenyl)benzenesulfonamide] | 2.6 |
| N#Cc1cccc(-c2cccc(S(=O)(=O)Nc3ccccc3S(N)(=O)=O)c2)c1 [Example 116, 2-[[3-(3-Cyanophenyl)phenyl]sulfonylamino]benzenesulfonamide] | 1.7 |
| N#Cc1ccc(-c2cccc(S(=O)(=O)Nc3ccccc3S(N)(=O)=O)c2)cc1 [Example 117, 2-[[3-(4-Cyanophenyl)phenyl]sulfonylamino]benzenesulfonamide] | 1.3 |
| COc1ncc(-c2cccc(S(=O)(=O)Nc3ccccc3S(N)(=O)=O)c2)c(OC)n1 [Example 118, 3-(2,4-Dimethoxypyrimidin-5-yl)-N-(2-sulfamoylphenyl)benzenesulfonamide] | 4.7 |
| NS(=O)(=O)c1ccccc1NS(=O)(=O)c1cccc(-c2ccoc2)c1 [Example 119, 2-[[3-(3-Furyl)phenyl]sulfonylamino]benzenesulfonamide] | 4.5 |
| NS(=O)(=O)c1ccccc1NS(=O)(=O)c1cccc(-c2ccc3[nH]ccc3c2)c1 [Example 120, 2-[[3-(1H-Indol-5-yl)phenyl]sulfonylamino]benzenesulfonamide] | 3.3 |
| NS(=O)(=O)c1ccccc1NS(=O)(=O)c1cccc(-c2cccc(OC(F)(F)F)c2)c1 [Example 121, 2-[[3-[3-(Trifluoromethoxy)phenyl]phenyl]sulfonylamino]benzenesulfonamide] | 0.22 |
| NS(=O)(=O)c1ccccc1NS(=O)(=O)c1ccc2c(c1)CCC2 [Example 122, N-(2-Sulfamoylphenyl)-2,3-dihydro-1H-indene-5-sulfonamide] | 6.7 |
| CN1CCOc2cc(S(=O)(=O)Nc3ccccc3S(N)(=O)=O)ccc21 [Example 123, 7-Methyl-N-(2-sulfamoylphenyl)-10-oxa-7-azabicyclo[4.4.0]deca-1,3,5-triene-3-sulfonamide] | 9.3 |
| NS(=O)(=O)c1ccccc1NS(=O)(=O)c1ccccc1-c1ccc(Cl)c(Cl)c1 [Example 124, 2-(3,4-Dichlorophenyl)-N-(2-sulfamoylphenyl)benzenesulfonamide] | 1.3 |
| NS(=O)(=O)c1ccccc1NS(=O)(=O)c1ccc(Oc2ncc(C(F)(F)F)cc2Cl)cc1 [Example 125, 2-[[4-[3-Chloro-5-(trifluoromethyl)pyridin-2-yl]oxyphenyl]sulfonylamino]benzenesulfonamide] | 7.2 |
| NS(=O)(=O)c1ccccc1NS(=O)(=O)c1ccc2c(c1)CCCC2 [Example 126] | 1.2 |
| NS(=O)(=O)c1ccccc1NS(=O)(=O)c1ccc(OCc2ccccc2)cc1 [Example 127, 4-Phenylmethoxy-N-(2-sulfamoylphenyl)benzenesulfonamide] | 5.1 |
| NS(=O)(=O)c1ccccc1NS(=O)(=O)c1ccc(C2CCCCC2)cc1 [Example 128, 2-[(4-Cyclohexylphenyl)sulfonylamino]benzenesulfonamide] | 1.7 |
| NS(=O)(=O)c1ccccc1NS(=O)(=O)c1cccc(-c2ccccc2)c1 [Example 129, 3-Phenyl-N-(2-sulfamoylphenyl)benzenesulfonamide] | 2.5 |
| Cn1nc(-c2ccc(S(=O)(=O)Nc3ccccc3S(N)(=O)=O)s2)cc1C(F)(F)F [Example 130, 5-(1-Methyl-5-trifluoromethyl-1H-pyrazol-3-yl)-thiophene-2-sulfonic acid (2-sulfamoyl-phenyl)-amide] | 5.2 |
| NS(=O)(=O)c1ccccc1NS(=O)(=O)c1ccc(C(F)(F)F)cc1 [Example 131, N-(2-Sulfamoylphenyl)-4-(trifluoromethyl)benzenesulfonamide] | 6.6 |
| NS(=O)(=O)c1ccccc1NS(=O)(=O)c1cccc(-c2cc(Cl)ccc2Cl)c1 [Example 132, 2-[[3-(2,5-Dichlorophenyl)phenyl]sulfonylamino]benzenesulfonamide] | 4.5 |
| NS(=O)(=O)c1ccccc1NS(=O)(=O)c1cccc(-c2cccc3c2oc2ccccc23)c1 [Example 133, 3-Dibenzofuran-4-yl-N-(2-sulfamoylphenyl)benzenesulfonamide] | 2.2 |
| NS(=O)(=O)c1ccccc1NS(=O)(=O)c1cccc(-c2ccc(C(F)(F)F)cc2)c1 [Example 134, 2-[[3-[4-(Trifluoromethyl)phenyl]phenyl]sulfonylamino]benzenesulfonamide] | 3.7 |
| COc1cccc(-c2cccc(S(=O)(=O)Nc3ccccc3S(N)(=O)=O)c2)c1 [Example 135, 3-(3-Methoxyphenyl)-N-(2-sulfamoylphenyl)benzenesulfonamide] | 8.3 |
| NS(=O)(=O)c1ccccc1NS(=O)(=O)c1cccc(-c2cc3ccccc3o2)c1 [Example 136, 3-Benzofuran-2-yl-N-(2-sulfamoylphenyl)benzenesulfonamide] | 3.8 |
| NS(=O)(=O)c1ccccc1NS(=O)(=O)c1cccc(-c2ccc3c(c2)CCO3)c1 [Example 137, 2-[[3-(2,3-Dihydrobenzofuran-5-yl)phenyl]sulfonylamino]benzenesulfonamide] | 2.1 |
| COc1ccc(-c2cccc(S(=O)(=O)Nc3ccccc3S(N)(=O)=O)c2)cn1 [Example 138, 3-(6-Methoxypyridin-3-yl)-N-(2-sulfamoylphenyl)benzenesulfonamide] | 0.57 |
| NS(=O)(=O)c1ccccc1NS(=O)(=O)c1cccc(-c2ccc(Cl)cc2Cl)c1 [Example 139, 2-[[3-(2,4-Dichlorophenyl)phenyl]sulfonylamino]benzenesulfonamide] | 1.8 |
| Cn1c(-c2cccc(S(=O)(=O)Nc3ccccc3S(N)(=O)=O)c2)cc2ccccc21 [Example 140, 3-(1-Methylindol-2-yl)-N-(2-sulfamoylphenyl)benzenesulfonamide] | 2.9 |

The next lines start with the values.

| IC50 [µM] | Structure (SMILES) |
| --- | --- |
| 3.1 | NS(=O)(=O)c1ccccc1NS(=O)(=O)c1cccc(-c2cccc(C(F)(F)F)c2)c1 [Example 141, 2-[[3-[3-(Trifluoromethyl)phenyl]phenyl]sulfonylamino]benzenesulfonamide] |
| 4.9 | NS(=O)(=O)c1ccccc1NS(=O)(=O)c1ccc(-c2cc3ccccc3o2)cc1 [Example 142, 4-Benzofuran-2-yl-N-(2-sulfamoylphenyl)benzenesulfonamide] |
| 1.1 | NS(=O)(=O)c1ccccc1NS(=O)(=O)c1cccc(-c2ccc(F)cc2F)c1 [Example 143, 2-[[3-(2,4-Difluorophenyl)phenyl]sulfonylamino]benzenesulfonamide] |
| 1.1 | NS(=O)(=O)c1cc(Br)ccc1NS(=O)(=O)c1cccc(-c2ccc(Cl)c(Cl)c2)c1 [Example 144, 5-Bromo-2-[[3-(3,4-dichlorophenyl)phenyl]sulfonylamino]benzenesulfonamide] |
| 4.1 | NS(=O)(=O)c1cc(-c2ccccc2)ccc1NS(=O)(=O)c1cccc(-c2ccc(Cl)c(Cl)c2)c1 [Example 145, 2-[[3-(3,4-Dichlorophenyl)phenyl]sulfonylamino]-5-phenyl-benzenesulfonamide] |
| 4.7 | NS(=O)(=O)c1ccccc1NS(=O)(=O)c1cccc(F)c1F [Example 146, 2,3-Difluoro-N-(2-sulfamoylphenyl)benzenesulfonamide] |
| 3.9 | NS(=O)(=O)c1cc(F)ccc1NS(=O)(=O)c1cccc(F)c1F [Example 147, 2,3-Difluoro-N-(4-fluoro-2-sulfamoyl-phenyl)benzenesulfonamide] |
| 0.38 | NS(=O)(=O)c1ccccc1NS(=O)(=O)c1cccc(Cl)c1F [Example 148, 3-Chloro-2-fluoro-N-(2-sulfamoylphenyl)benzenesulfonamide] |
| 0.65 | NS(=O)(=O)c1ccccc1NS(=O)(=O)c1cccc(Cl)c1Cl [Example 149, 2,3-Dichloro-N-(2-sulfamoylphenyl)benzenesulfonamide] |
| 4.2 | Cc1ccc(NS(=O)(=O)c2cccc(-c3ccc(Cl)c(Cl)c3)c2)c(S(N)(=O)=O)c1 [Example 150, 2-[[3-(3,4-Dichlorophenyl)phenyl]sulfonylamino]-5-methyl-benzenesulfonamide] |
| 3.7 | NC(=O)c1ccc(NS(=O)(=O)c2cccc(-c3ccc(Cl)c(Cl)c3)c2)c(S(N)(=O)=O)c1 [Example 151, 4-[[3-(3,4-Dichlorophenyl)phenyl]sulfonylamino]-3-sulfamoyl-benzamide] |
| 3.9 | Cc1ccc(NS(=O)(=O)c2cccc(-c3cccc(OC(F)(F)F)c3)c2)c(S(N)(=O)=O)c1 [Example 152, 5-Methyl-2-[[3-[3-(trifluoromethoxy)phenyl]phenyl]sulfonylamino]-benzenesulfonamide] |
| 3.2 | NS(=O)(=O)c1cc(CO)ccc1NS(=O)(=O)c1cccc(Cl)c1Cl [Example 153, 2-(2,3-Dichloro-benzenesulfonylamino)-5-hydroxymethyl-benzenesulfonamide] |
| 9.3 | Cc1ccc(NS(=O)(=O)c2cccc(Cl)c2Cl)c(S(N)(=O)=O)c1 [Example 154, 2-(2,3-Dichloro-benzenesulfonylamino)-5-methyl-benzenesulfonamide] |
| 9.8 | NS(=O)(=O)c1cc(Oc2ccccc2)ccc1NS(=O)(=O)c1cccc(-c2ccc(Cl)c(Cl)c2)c1 [Example 155, 2-[[3-(3,4-Dichlorophenyl)phenyl]sulfonylamino]-5-phenoxy-benzenesulfonamide] |
| 5.4 | NS(=O)(=O)c1cc(Oc2ccccc2)ccc1NS(=O)(=O)c1cccc(-c2cccc(OC(F)(F)F)c2)c1 [Example 156, 5-Phenoxy-2-[[3-[3-(trifluoromethoxy)phenyl]phenyl]sulfonylamino]-benzenesulfonamide] |
